# Assay results: patent publication US8741965B2, “Method of administering a pheromone composition to an animal to modify the animals behavior over an extended period of time” (Sergeant's Pet Care Products, Inc., priority 2011, dated 2014)
# “Also recorded” adds a separate entry of the source.
# Legend:
# anxious dogs = assay: Efficacy of pheromone/INTEROMONE collars on dog heart rate, 24 h baseline and after Fog Horn startle (Example 4); format: in vivo
# Procedure: Heart rate and surface temperature were measured by telemetry.
# The study was conducted in two phases: Baseline and after startle. In the baseline study each of the four dogs received each collar treatment in random order for two days at a time. Heart rate and surface temperature were collected each 5 seconds for 24 hours. In the second phase, dogs were startled with a 110 dB Fog Horn and heart rate was measured each 1 second for 10 minutes before and 2 hours after startle.
# nervous dogs = assay: Example 11 Study 1: baseline behavior and heart rate after collar or spray; format: in vivo, dog; conditions: for pacing-walking behavior of individual dogs: Study 1, FIG. 3A; for sitting behavior of individual dogs: FIG. 3C; for heart rate of individual dogs: Study 1, dogs 1-4, FIG. 6; for overall dog heart rate and its decline: dogs 1-4, two hours after collar or spray, FIGS. 4, 5
# Text: Eight dogs were obtained from a local contract research facility and assessment was made as to general dog health, behavior and heart rate. The dogs were estimated to be 2 to 7 years of age, mixed breed, and weighed averagely 8.1±0.18 kg at the start of the studies. […] Upon arrival each dog was bathed using shampoo containing flea and tick medicine (Hartz Mountain Corp. Secaucus, N.J. USA), and their body hair was shaved. Each dog was kept in a single room, which had 100% fresh air intake and exhaust. The dogs were fed twice (am and pm) per day ad libitum. At that time, the room was cleaned and the dogs obtained extra exercise. Water was available ad libitum.
# Dog behavior was captured on video media at a sampling rate of 30 frames per second. Video records were reviewed in real time (with tape playing 30 frames per second). A scan sampling method was used to record dog behaviors each minute or each 5 minutes depending on the particular study. If the sample period was 120 minutes with four periods (0-30=0, 30-60=30, 60-90=60, and 90-120-90 min), then a scan sample was recorded each 1 minute. If the sample period was 24 hours, then the scan sample was collected each 5 minutes and summarized each hour. For example, pacing is when a dog walks in a stereotyped manner for minutes to hours. Because it was not easy to distinguish walking from pacing, the behaviors were merged. In addition, the video records could not clearly distinguish lying down and awake versus lying down and sleeping, therefore there was no separate description for these two behaviors.
# Heart rate during the studies was measured by the use of a non-invasive telemetry system (Data Science International, St. Paul, Minn., USA). Leads were placed in contact with the dogs' shaved skin. Sensors measured heart rate, surface temperature and general activity. Data were transmitted to a receiving computer in another room. The sampling rate varied with the study, but was 5 seconds for the first two hours after treatments and then each 1 minute for 24 hours (depending on the particular study). For surface temperature measurements of the dog subjects, a thermistor was located against the skin of each dog. It recorded the surface temperature to the neared 0.1° C. on the same interval as the heart rate data.
# Behavior and physiological data (heart rate and surface temperature) were analyzed by least squares analysis of variance using SAS (2011) software and the general linear models procedures. The experimental design of each study was a specialized randomized complete block in a Latin square design with data collected as a split plot over time. Dogs represented the blocks. Each dog received each treatment randomly in successive days or weeks. The statistical model included effects of treatment (TRT), dog, dog by treatment (TRT*DOG; error term used to assess treatment and dog effects), time (HR), treatment by time (TRT*HR), and residual error (SE; used to test remaining effects). Behavior data were collected and analyzed as counts per time period, but for clarity of presentation, the data are reported as percentage of time dogs engaged in each behavior.
# In Study 1, baseline heart rate data were collected while the dogs each experienced 4 different treatments—a placebo collar (PLACEBO), Pheromone “H” Collar (SERG), Dog Appeasing Pheromone in collar form (DAPC) and the Rabbit Pheromone (RP; 1 μg/mL) formulated into a spray in accordance with Example 8. Each of the four treatments was given to each dog in a random order, with the treatment changing each week. Baseline heart rate and behavior data were collected for 30 minutes before each treatment application (see Table 8) and 2 hours after (see Table 9) (expressed in % of time).
# [1] = 120 minutes after treatment, no startle, SERG, DAPC collars, RP spray 1 μg/mL
compound,measurement,setting,value
"C/C=C(\C)C=O [RP, 2-methylbut-2-enal]",heart rate over 24 hours with collar (overall and individual dogs),"anxious dogs; baseline phase, versus Placebo, FIG. 19",increased the heart rate of dog 1
same,heart rate after startle (individual dogs),"anxious dogs; collar, 110 dB Fog Horn startle, FIG. 20",Dogs 1 and 4 had reduced heart rate
same,"decline in heart rate from hour of startle (hour 1) to next hour (hour 2), slope of regression","anxious dogs; collar, after startle, FIG. 21, placebo 15 bpm",26.6 bpm
same,sitting over time versus other treatments,"nervous dogs; 2-hour period after collar or spray, FIG. 3D","In the 60 minute period after treatment with rabbit pheromone, dogs also sat more than with the other treatments"
same,average time dogs sat,"nervous dogs; 30 minute period after spray, FIG. 3D",~50 % of the time
same,Defecate,nervous dogs; [1],0 % of time
same,Drink,nervous dogs; [1],0.0 % of time
same,Eat,nervous dogs; [1],0.0 % of time
same,Lick self,nervous dogs; [1],0 % of time
same,Lying down,nervous dogs; [1],58.5 % of time
same,Pace-walk,nervous dogs; [1],7.6 % of time
same,Sitting,nervous dogs; [1],93.1 % of time
same,Standing,nervous dogs; [1],3.1 % of time
same,Urinate,nervous dogs; [1],0 % of time
same,pacing-walking behavior of individual dogs,nervous dogs; listed as RP spray,dog 7 showed reduced pacing-walking; also recorded: increased pacing-walking of dog 1 compared with the DAP collar
same,pacing-walking behavior of individual dogs,nervous dogs; listed as rabbit INTEROMONE® spray,"Dog 3 increased pacing with Serg, but reduced its pacing with DAP collar and rabbit INTEROMONE® spray; also recorded: Dog 7's pacing was reduced by DAP collar and reduced even more by rabbit INTEROMONE® spray"
same,lying down behavior / activity of individual dogs,"nervous dogs; Study 1, compared with Placebo, FIG. 3B","For dog 2, both SERG and RP reduced lying down behavior significantly; also recorded: For dog 8, only RP increased dog activity and reduced lying down"
same,sitting behavior of individual dogs,"nervous dogs; Study 1, compared with Placebo, listed as RP spray",increased dog sitting in dogs 2 and 8
same,sitting behavior of individual dogs,"nervous dogs; Study 1, compared with Placebo, listed as rabbit pheromone",dogs 2 and 8 showed increased sitting
same,heart rate of individual dogs,nervous dogs,decreased the heart rates of dogs 3 and 4 compared to other treatments
same,heart rate of individual dogs,nervous dogs; listed as Rabbit pheromone,decreased heart rate in dog 3
same,heart rate of individual dogs,nervous dogs; listed as rabbit pheromone spray,Dog 3 had decreased heart rate
same,speed of calming,"nervous dogs; Study 1, spray versus collar",calms dogs faster than treatment with DAP collar
same,heart rate decline (slope of regression equation),"nervous dogs; dogs 1-4, FIG. 5, placebo 6 bpm/h",24.5 bpm/h
same,overall dog heart rate and its decline,nervous dogs,had the greatest effect in decreasing dog heart rate
same,overall dog heart rate and its decline,nervous dogs; listed as rabbit pheromone,most significantly (P<0.05) reduced overall dog heart rate; also recorded: greater decline in heart rate than Placebo
